In PubChem BioAssay AID540268 (Broad Institute, 2011):
Where “and” joins values, the source holds several entries; their conditions need not be identical. Identical values can stand only once. Calls of active or inactive are those of the source. No rule for the calls is given here.

Experiment: reduced viability of parasite-Hsp90 expressing yeast – ATP luminescence, 48 h, cherry-picked samples, anti-malarial Hsp90 inhibitor project, dose response (AID 540268);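 as to activity change, negative = inhibition: 0% = neutral control wells and -100% = positive control wells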
Conditions: yeast expressing the parasite Hsp90, ATP luminescence; for activity change, negative = inhibition: at 26 µM (top of the series)

SMILES | AC50 | activity change, negative = inhibition
O=[N+]([O-])c1ccc(C=Nc2ccc(Cl)cc2Cl)s1 | 8.6 µM | 
O=C(Oc1c(Cl)cc(Cl)c2cccnc12)c1ccco1 | 0.696 µM | 
O=C1C2C3C=CC(CNS(=O)(=O)c4ccccc4[N+](=O)[O-])(O3)C2C(=O)N1c1ccccc1 (stereo not given) | 10.3 µM | 
CCOC(=O)C(=Cc1ccc(-n2cncn2)cc1)C(=O)OCC | 6.51 µM | 
O=C1C=C(c2ccc(Cl)cc2)C(=O)N1Nc1ccccc1 | < 0.195 µM | 
O=C(Nc1ccc(F)cc1)c1nc(S(=O)(=O)Cc2ccccc2)ncc1Cl | 5.68 µM | 
O=c1cc2oc3cc(O)c(O)cc3c(-c3ccccc3[N+](=O)[O-])c-2cc1O | 3.19 µM | 
CC[C@@H](C)[C@H](NC(=O)OC(C)(C)C)c1nnc(S(=O)(=O)Cc2cc(C)ccc2C)o1 | 5.46 µM | 
O=C(/C(=C/c1cccc(Cl)c1)c1nc2ccccc2[nH]1)c1ccccc1 |  | 49.8% (inactive)
COc1ccccc1OCCNC(=O)c1ccc(Br)cc1 | < 0.195 µM | 
Cc1cccnc1Nc1nc(-c2ccccn2)cs1 | 4.32 µM | 
COc1ccc(N=Cc2cc(Cc3ccccc3Cl)cc([N+](=O)[O-])c2O)cc1OC | 1.5 µM | 
Nc1c(C(=O)Nc2ccc3c(c2)OCCO3)nnn1Cc1ccccc1Cl | 5.48 µM | 
CCOC(=O)c1ccc(N2C(=O)C=CC2=O)cc1 | < 0.195 µM | 
O=C(O)/C=C/c1cn(-c2ccccc2)nc1-c1cc2ccccc2o1 | 16 µM | 
O=C(O)/C=C/C(=O)c1ccc2c(c1)CCc1ccccc1-2 | 26.3 µM | 
CN(C)/C=C/C(=O)c1ccc(N2CCN(c3ncc(C(F)(F)F)cc3Cl)CC2)cc1 | 4.16 µM | 
Oc1ccc(Cl)cc1Cc1cc(Cl)ccc1O | 5.41 µM | 
Cn1c(SCC(=O)N/N=C/c2ccc([N+](=O)[O-])s2)nnc1-c1ccc(Cl)cc1 | 2.3 µM | 
Cc1ccc(N2C(=O)C3C4C=CC(CNC(=S)Nc5cccc(Cl)c5)(O4)C3C2=O)cc1 (stereo not given) | 8.74 µM | 
CCOC(=O)c1cc([N+](=O)[O-])cc([N+](=O)[O-])c1Sc1ncnc2nc[nH]c12 |  | -6.96% (inactive)
COc1ccc(C(=O)/C=C/C(=O)N(CC(=O)NC2CCCCC2)Cc2cccs2)c(O)c1 | 3.3 µM | 
O=S1(=O)Nc2c(ccc3cccnc23)-c2ccccc21 | 0.894 µM | 
C/C(=N\Nc1ncc(Cl)cc1Cl)c1ccccn1 | 1.8 µM | 
O=C(C#Cc1ccccc1)c1cccc([N+](=O)[O-])c1 | 0.291 µM | 
CCCCCCCCCCCCCCCC[N+](C)(C)CCl | 4.3 µM | 
O=[N+]([O-])c1ccc(O)c(/C=N/Nc2ccccn2)c1 | 3.31 µM | 

SMILES | AC50 | activity change, negative = inhibition
O=[N+]([O-])/C=C/c1cn(Cc2ccccc2)c2ccccc12 | 5.99 µM | 
Cc1ccc(/C=C2/NC(=O)N(Cc3ccc(Br)cc3)C2=O)o1 |  | 47.3% (inactive)
O=C(CC(n1cncn1)C(Cl)(Cl)Cl)c1ccc([N+](=O)[O-])cc1 (stereo not given) | 4.42 µM | 
O=[N+]([O-])c1cc(-n2cnnn2)ccc1N1CCC(Cc2ccccc2)CC1 | 4.23 µM | 
O=C(NNC1=C(C(=O)C(F)(F)F)CCC1)c1ccc(Br)cc1 | 0.759 µM | 
N/C(Cc1ccc(Cl)cc1Cl)=N\OC(=O)c1ccc(Br)o1 | 4.14 µM | 
CCCCCCC(=O)N(O)C1CC(=O)N(c2ccc(Cl)cc2)C1=O (stereo not given) | 1.65 µM | 
Cc1ccc(-n2ncc3c2CCCC3NC(=O)c2ccccc2N2CCOCC2)cc1C (stereo not given) | 0.984 µM | 
CC1=NN(c2nc3ccccc3[nH]2)C(=O)/C1=C/N(C)C | 2.23 µM | 
Oc1c(C(Nc2nc3ccccc3s2)c2ccco2)ccc2cccnc12 (stereo not given) | 24.8 µM | 
Oc1c(C(c2ccc(Cl)cc2)N2CCCC2)cc(Cl)c2cccnc12 (stereo not given) | 1.58 µM | 
CC(=O)OC1(C)CC(C)C(=O)C(C(O)CC2CC(=O)NC(=O)C2)C1 (stereo not given) | < 0.195 µM | 
O=C(/C(=C/O)N=Nc1cccc(C(F)(F)F)c1)c1ccccc1 | 4.14 µM | 
CC(NNC(=S)N1CCN(c2ccccn2)CC1)c1nccc2ccccc12 (stereo not given) | 2.74 µM | 
O=c1oc2ccccc2c(O)c1Cc1cc(Cl)c2cccnc2c1O | 3.36 µM | 
COc1cc(/C=C/[N+](=O)[O-])ccc1OC(=O)c1cccnc1 | 1.65 µM | 
CCN1C/C(=C\c2cccc([N+](=O)[O-])c2)C(=O)/C(=C/c2cccc([N+](=O)[O-])c2)C1 | 5.63 µM | 
CN1CCN(C(=O)c2cc(COc3c(F)cccc3F)on2)CC1c1ccccc1 (stereo not given) | 0.43 µM | 
CCN1/C(=C/c2ccc3cc(C)ccc3[n+]2CC)Sc2cc(C)c(C)cc21 | 3.25 µM | 
O=C1c2cc(Cl)ccc2-c2c(O)cc(Cl)cc21 | 1.4 µM | 
C[C@H]1C[C@@H](C)C(=O)[C@@H]([C@H](O)CC2CC(=O)NC(=O)C2)C1 | < 0.195 µM | 
Cc1[nH]c2ccc(C(=O)N3CCN(c4cccc(Cl)c4)CC3)cc2c1C | 8.89 µM | 
CC(C)N1C(=O)/C(=C\c2nc3ccccc3c(=O)[nH]2)c2ccccc21 | 6.47 µM | 
Cc1cccc(NC(=S)N/N=C/c2ccc([N+](=O)[O-])s2)c1 |  | -14.3% (inactive)
CC(=O)N1CCN(c2ccc(OC[C@H]3CO[C@](Cn4ccnc4)(c4ccc(Cl)cc4Cl)O3)cc2)CC1 | 1.29 µM | 
O=C(/C(=C\c1ccccc1)c1nc2ccccc2[nH]1)c1ccc(Cl)cc1 |  | -31.8% (inactive)
CC(=O)Nc1ccc2c(c1)Cc1cc(N3C(=O)C=CC3=O)ccc1-2 | 0.654 µM | 

SMILES | AC50 | activity change, negative = inhibition
CC(C)Cn1c(=O)c(C(=O)Nc2ccncc2)c(O)c2ccccc21 | 8.25 µM | 
O=C(/C=C/c1ccccc1)CCN1CCCCC1 | 4.02 µM | 
CCCCCCCCCCCCCCCC[n+]1cccc(C(=O)N(CC)CC)c1 | 2.89 µM and 8.12 µM | 
COc1ccc2c(n1)Sc1nc3ccccc3nc1N2 | 12.1 µM | 
Cc1c(N=Cc2cc(Br)cc(Br)c2O)cccc1C(=O)O | 3.06 µM | 
COc1ccc(NC(=O)c2cc([N+](=O)[O-])ccc2O)cc1 | 5.24 µM | 
O=C(Nc1cccc(C(F)(F)F)c1)Oc1ccc(Cl)c2cccnc12 | 4.93 µM | 
O=C1C=CC(=O)N1c1ccc2c(c1)Cc1cc(F)ccc1-2 | < 0.195 µM | 
CC1CCCCC1NC(=O)/C(C#N)=C/c1ccccc1F (stereo not given) | 0.87 µM | 
CC(C)c1c(O)ccc2c1CC[C@H]1C(C)(C)CCC[C@]21C | 2.86 µM | 
Cc1ccc(C)c(/C=C/C(=O)c2ccccc(=O)c2O)c1 | 2.19 µM | 
O=C(NCC1CCCO1)c1cc([N+](=O)[O-])ccc1N1CCC(Cc2ccccc2)CC1 (stereo not given) | 4.06 µM | 
CCCCCCCCC/C(=N\O)c1ccccn1 | 3.65 µM | 
Cc1ccc(OCC(=O)NNC(=S)NC(=O)C(C)(C)C)c(Br)c1 | 5.05 µM | 
Cc1cc(C)c2c(N=NN3CCCCC3)[nH]nc2n1 | 4.73 µM | 
O=C(/C=C/c1ccc(Cl)c([N+](=O)[O-])c1)c1cccnc1 | 0.806 µM | 
O=[N+]([O-])c1ccc(S(=O)(=O)c2cccc(C(F)(F)F)c2)nc1 | 2.52 µM | 
CC(C)(C)c1cc(NCc2ccccn2)n2ncc(-c3ccccc3)c2n1 | 1.49 µM | 
COc1ccc(C2=CC3=C(Br)C(=O)C(C)(OC(=O)C4CCCC4)C(=O)C3=CO2)cc1 (stereo not given) | 4.4 µM | 
Clc1nssc1=Nc1ccc(Br)cc1 | 3.4 µM | 
Cc1ccc(-c2cc(C(=O)N3N=C(C(F)F)CC3(O)C(F)F)c3ccccc3n2)cc1C (stereo not given) | 2.93 µM | 
COc1ccc(NC(=O)C2CCCN2S(=O)(=O)c2cccc3cccnc23)c(OC)c1 (stereo not given) | 1.31 µM | 
COc1ccc(OC)c2c1C(=O)C(Cl)=C(Cl)C2=O | 1.64 µM | 
O=C(NNc1nc2ccc(Cl)cc2s1)c1cc(-c2cccs2)nc2ccccc12 | 1.49 µM | 
O=C(/C=C/c1cccc(Cl)c1)c1ccc([N+](=O)[O-])o1 | 0.84 µM | 
COc1ccc(Cl)cc1C(Nc1cccnc1)c1ccc2cccnc2c1O (stereo not given) | 1.35 µM | 
